Assays:
[1] = tested on: colbicula (Corbicula leana); assay: Biological activity of corbicula (aqueduct extension score) in aqueous mineral solutions; type: in vivo; details: saccharide 1 w/v %, total of 18 shellfishes, 16 h
Source text: Influence of various saccharides was judged by observing the degree of extending aqueduct of the shellfish; 3 points: its aqueduct is well extended; 2 points: its aqueduct is slightly extended; 1 point: its aqueduct is not extended but its shells are opened; 0 point: its shells are closed. The effect on biological activity was judged by the total point of 18 shellfishes.
Suitable region for biological activity was examined by using colbicula (Corbicula leana) as fishes and shellfishes living in fresh water in the case of enhancing their biological activity by using aqueous mineral solutions containing various saccharides. In detail, solar salt (85% by weight of sodium chloride and 15% by weight of magnesium) as minerals was dissolved in tap water kept in a container for two days to give final concentrations described in the following Table 4. Saccharide (any one of D-glucose, maltose, sucrose, maltitol, α,α-trehalose, α-maltosyl α,α-trehalose, maltotetraose and cyclic tetrasaccharide) was dissolved in the resulting salt solutions to give a final concentration of 1 w/v %, on a dry solid basis. The resulting each solution was placed in a plastic bat. Eighteen pre-selected active shellfishes in one group were placed in the bat. The bat was shaded with a black cloth and left at ambient temperature (18° C.) for 16 hours. As a control, an aqueous solar salt solution without saccharides was prepared. Biological activity of the shellfish was judged by measuring extend their aqueducts macroscopically in the same manner as in Experiment 1.
Effective concentration range of α,α-trehalose or α-maltosyl α,α-trehalose on enhancing biological activity and/or influencing on suitable region for biological activity of colbicula (Corbicula leana) was determined according to the method of Experiment 4 by examining biological activity of the shellfish in the aqueous mineral solution with a mineral concentration of 1.5 w/v %, where α,α-trehalose or α-maltosyl α,α-trehalose was effective in Experiment 4, containing α,α-trehalose or α-maltosyl α,α-trehalose at a concentration of 0.01, 0.1, 1, 2, 3 or 4 w/v %, on a dry solid basis. As a control, a solution containing 1.5 w/v % of mineral without such saccharides was prepared and treated in the same manner.

[2] = tested on: short-necked clam (Ruditapes philippinarum); assay: Biological activity of short-necked clam (aqueduct extension score) in aqueous mineral solutions; type: in vivo; details: saccharide 1 w/v %, total of 18 clams, 16 h
Method: Suitable region for biological activity of short-necked clam (Ruditapes philippinarum), as a fish or shellfish living in seawater, was examined by adding various saccharides to mineral aqueous solutions with various concentrations. In detail, solar salt (85% by weight of sodium chloride and 15% by weight of magnesium) as minerals was dissolved in running water kept in a container for two days to give final concentrations described in the following Table 1. Saccharide (any one of D-glucose, maltose, sucrose, maltitol, α,α-trehalose, α-maltosyl α,α-trehalose, maltotetraose and cyclic tetrasaccharide) was dissolved in the resulting salt solutions to give a final concentration of 1 w/v %, on a dry solid basis. Each of the resulting solutions was placed in a plastic bat. Eighteen pre-selected active short-necked clam in one group were placed in the bat. The bat was shaded with a black cloth and left at ambient temperature (18° C.) for 16 hours. As a control, an aqueous solar salt solution without any saccharides was prepared. Saccharides except for α-maltosyl α,α-trehalose as a saccharide derivatives thereof and cyclic tetrasaccharide were chosen from commercialized products. α-Maltosyl α,α-trehalose as saccharide derivatives of α,α-trehalose in a powder form with a purity of 98 w/w % or over was prepared by the method disclosed in Experiment 4 in Japanese Patent Kokai No. 143876/1995. Cyclic tetrasaccharide in a crystalline form with a purity of 98 w/w % or over, on a dry solid basis, was prepared by the method disclosed in Example A-7 in International Patent Publication No. WO02/10361. Influence of various saccharides was judged by observing the degree of extending aqueduct of the shellfish; 3 points: its aqueduct is well extended; 2 points: its aqueduct is slightly extended; 1 point: its aqueduct is not extended but its shells are opened; 0 point: its shells are closed. The effect on biological activity was judged by the total point of 18 shellfishes. To investigate the effective concentration range of α,α-trehalose or α-maltosyl α,α-trehalose against a mineral solution with a concentration of 1.5 w/v % or 4.5 w/v %, where α,α-trehalose or α-maltosyl α,α-trehalose was remarkably effective in Experiment 1, the following experiment using α,α-trehalose or α-maltosyl α,α-trehalose at a concentration of 0.01, 0.1, 1, 2, 3 or 4 w/v % was carried out according to the method in Experiment 1. As a control, mineral aqueous solutions with a concentration of 1.5 w/v % or 4.5 w/v % without any of the saccharides were prepared and carried out in the same manner.

| Structure (SMILES) | Judgment score of biological activity ([1]; mineral concentration 0) | Judgment score of biological activity ([1]; mineral concentration 0.5) | Judgment score of biological activity ([1]; mineral concentration 1.0) | Judgment score of biological activity ([1]; mineral concentration 1.5) | Judgment score of biological activity ([1]; mineral concentration 2.0) | Judgment score of biological activity ([1]; mineral concentration 2.5) | Judgment score of biological activity ([1]; mineral concentration 3.0) | Judgment score for biological activity ([2]; mineral 0 w/v %) | Judgment score for biological activity ([2]; mineral 0.5 w/v %) | Judgment score for biological activity ([2]; mineral 1.0 w/v %) | Judgment score for biological activity ([2]; mineral 1.5 w/v %) | Judgment score for biological activity ([2]; mineral 2.0 w/v %) | Judgment score for biological activity ([2]; mineral 2.5 w/v %) | Judgment score for biological activity ([2]; mineral 3.0 w/v %) | Judgment score for biological activity ([2]; mineral 3.5 w/v %) | Judgment score for biological activity ([2]; mineral 4.0 w/v %) | Judgment score for biological activity ([2]; mineral 4.5 w/v %) | Judgment score for biological activity ([2]; mineral 5.0 w/v %) | Judgment score for biological activity ([2]; mineral 5.5 w/v %) | Judgment score for biological activity ([2]; mineral 6.0 w/v %) |
| --- | --- | --- | --- | --- | --- | --- | --- | --- | --- | --- | --- | --- | --- | --- | --- | --- | --- | --- | --- | --- |
| OC[C@H]1O[C@@H]2OC[C@H]3O[C@H](O[C@@H]4[C@@H](O)[C@@H](OC[C@H]5O[C@H](O[C@H]([C@H]2O)[C@@H]1O)[C@H](O)[C@@H](O)[C@@H]5O)O[C@H](CO)[C@H]4O)[C@H](O)[C@@H](O)[C@@H]3O [Cyclic tetrasaccharide, cyclic tetrasaccharide] | 51 | 50 | 29 | 16 | 13 | 12 | 1 | 6 | 10 | 15 | 16 | 30 | 43 | 49 | 41 | 30 | 17 | 11 | 0 | 0 |
| OC[C@H]1O[C@H](O[C@H]2[C@H](O)[C@@H](O)[C@@H](O[C@H]3[C@H](O)[C@@H](O)[C@@H](O[C@H]4[C@H](O)[C@@H](O)C(O)O[C@@H]4CO)O[C@@H]3CO)O[C@@H]2CO)[C@H](O)[C@@H](O)[C@@H]1O (stereo partly drawn) [Maltotetraose, maltotetraose] | 51 | 49 | 19 | 14 | 11 | 9 | 0 | 7 | 11 | 12 | 16 | 28 | 45 | 46 | 42 | 31 | 26 | 14 | 5 | 0 |
| OC[C@@H](O)[C@@H](O[C@H]1O[C@H](CO)[C@@H](O)[C@H](O)[C@H]1O)[C@H](O)[C@@H](O)CO [Maltitol, maltitol] | 50 | 47 | 25 | 18 | 13 | 2 | 0 | 8 | 11 | 15 | 20 | 30 | 41 | 48 | 47 | 32 | 16 | 12 | 5 | 0 |
| O=C[C@H](O)[C@@H](O)[C@H](O)[C@H](O)CO [D-Glucose, D-glucose] | 50 | 51 | 25 | 18 | 15 | 5 | 0 | 7 | 12 | 12 | 14 | 30 | 41 | 48 | 44 | 31 | 24 | 11 | 4 | 0 |
| OC[C@H]1O[C@H](O[C@H]2[C@H](O)[C@@H](O)C(O)O[C@@H]2CO)[C@H](O)[C@@H](O)[C@@H]1O (mixture of isomers) [Maltose, maltose] | 51 | 49 | 18 | 15 | 14 | 9 | 0 | 4 | 12 | 14 | 15 | 32 | 44 | 48 | 42 | 32 | 25 | 8 | 3 | 0 |
| OC[C@H]1O[C@@](CO)(O[C@H]2O[C@H](CO)[C@@H](O)[C@H](O)[C@H]2O)[C@@H](O)[C@@H]1O [Sucrose, sucrose] | 51 | 46 | 21 | 11 | 8 | 7 | 0 | 7 | 11 | 14 | 16 | 31 | 44 | 48 | 45 | 30 | 21 | 9 | 0 | 0 |

— patent publication US20070232563A1, “Method for Enhancing Biological Activity and/or Expanding Suitable Region for Biological Activity of Living Body Contacting with Aqueous Environment” (Kabushiki Kaisha Hayashibara Seibutsu Kagaku Kenky, priority 2004, published 2007)
